System: K24384-001-R-PDC complex spheroids, viability
Test: Anticancer human tumor K24384-001-R-PDC patient-derived pancreatic adenocarcinoma cell line growth inhibition [GQUAD]
Conditions: for IC50: curve of first compound; for viability, T/C: stronger effect = lower value
Summary of the method: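 Multi-cell-type spheroids of tumor cells with HUVEC and mesenchymal stem cells, treated with drug combinations. Concentrations descend in half-log steps from near clinical Cmax, or from 10 microM where Cmax is unknown; viability read-out.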

[1] = second compound 0.0316 µM, first compound 0.0316 µM
[2] = second compound 0.0316 µM, first compound 0.1 µM
[3] = second compound 0.0316 µM, first compound 0.316 µM
[4] = second compound 0.0316 µM, first compound 1 µM
[5] = second compound 0.0316 µM, first compound 3.16 µM
[6] = second compound 0.0316 µM, first compound 10 µM
[7] = second compound 0.1 µM, first compound 0.0316 µM
[8] = second compound 0.1 µM, first compound 0.1 µM
[9] = second compound 0.1 µM, first compound 0.316 µM
[10] = second compound 0.1 µM, first compound 1 µM
[11] = second compound 0.1 µM, first compound 3.16 µM
[12] = second compound 0.1 µM, first compound 10 µM
[13] = second compound 0.316 µM, first compound 0.0316 µM
[14] = second compound 0.316 µM, first compound 0.1 µM
[15] = second compound 0.316 µM, first compound 0.316 µM
[16] = second compound 0.316 µM, first compound 1 µM
[17] = second compound 0.316 µM, first compound 3.16 µM
[18] = second compound 0.316 µM, first compound 10 µM
[19] = second compound 1 µM, first compound 0.0316 µM
[20] = second compound 1 µM, first compound 0.1 µM
[21] = second compound 1 µM, first compound 0.316 µM
[22] = second compound 1 µM, first compound 1 µM
[23] = second compound 1 µM, first compound 3.16 µM
[24] = second compound 1 µM, first compound 10 µM
[25] = second compound 3.16 µM, first compound 0.0316 µM
[26] = second compound 3.16 µM, first compound 0.1 µM
[27] = second compound 3.16 µM, first compound 0.316 µM
[28] = second compound 3.16 µM, first compound 1 µM
[29] = second compound 3.16 µM, first compound 3.16 µM
[30] = second compound 3.16 µM, first compound 10 µM
[31] = second compound 10 µM, first compound 0.0316 µM
[32] = second compound 10 µM, first compound 0.1 µM
[33] = second compound 10 µM, first compound 0.316 µM
[34] = second compound 10 µM, first compound 1 µM
[35] = second compound 10 µM, first compound 3.16 µM
[36] = second compound 10 µM, first compound 10 µM
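Note: spheroids exposed to compounds for seven days.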

SMILES: COc1cccc2c1C(=O)c1c(O)c3c(c(O)c1C2=O)CC(O)(C(=O)CO)CC3OC1CC(N)C(O)C(C)O1 (stereo unspecified) + Cc1cnc(CNC(=O)c2c(=O)c3ccc(N4CCCN(C)CC4)nc3n3c2sc2ccccc23)cn1
- IC50 (second compound 0.0316 µM): 280 nM
- IC50 (second compound 0.1 µM): 167 nM
- IC50 (second compound 0.316 µM): 85.2 nM
- IC50 (second compound 1 µM): < 31.6 nM
- IC50 (second compound 3.16 µM): < 31.6 nM
- IC50 (second compound 10 µM): < 31.6 nM
- viability, T/C [1]: 74.3%
- viability, T/C [2]: 62.1%
- viability, T/C [3]: 50.3%
- viability, T/C [4]: 17.6%
- viability, T/C [5]: 5.43%
- viability, T/C [6]: 5.41%
- viability, T/C [7]: 71.2%
- viability, T/C [8]: 55%
- viability, T/C [9]: 42.7%
- viability, T/C [10]: 18.8%
- viability, T/C [11]: 6.08%
- viability, T/C [12]: 5.63%
- viability, T/C [13]: 58.2%
- viability, T/C [14]: 48%
- viability, T/C [15]: 33.3%
- viability, T/C [16]: 20.6%
- viability, T/C [17]: 4.64%
- viability, T/C [18]: 6.62%
- viability, T/C [19]: 35.4%
- viability, T/C [20]: 46.6%
- viability, T/C [21]: 35.1%
- viability, T/C [22]: 19.4%
- viability, T/C [23]: 2.42%
- viability, T/C [24]: 3.74%
- viability, T/C [25]: 40%
- viability, T/C [26]: 44.3%
- viability, T/C [27]: 36.1%
- viability, T/C [28]: 18.7%
- viability, T/C [29]: 0.26%
- viability, T/C [30]: 1.49%
- viability, T/C [31]: 33.3%
- viability, T/C [32]: 25.9%
- viability, T/C [33]: 24.4%
- viability, T/C [34]: 0.41%
- viability, T/C [35]: 0.26%
- viability, T/C [36]: 0.2%

SMILES: Nc1ccn(C2OC(CO)C(O)C2(F)F)c(=O)n1 (stereo unspecified) + Cc1cnc(CNC(=O)c2c(=O)c3ccc(N4CCCN(C)CC4)nc3n3c2sc2ccccc23)cn1
- IC50 (second compound 0.0316 µM): 431 nM
- IC50 (second compound 0.1 µM): 396 nM
- IC50 (second compound 0.316 µM): < 31.6 nM
- IC50 (second compound 1 µM): < 31.6 nM
- IC50 (second compound 3.16 µM): < 31.6 nM
- IC50 (second compound 10 µM): < 31.6 nM
- viability, T/C [1]: 68%
- viability, T/C [2]: 64.8%
- viability, T/C [3]: 58.6%
- viability, T/C [4]: 26.7%
- viability, T/C [5]: 28.4%
- viability, T/C [6]: 22.3%
- viability, T/C [7]: 52.5%
- viability, T/C [8]: 54%
- viability, T/C [9]: 56.3%
- viability, T/C [10]: 32.5%
- viability, T/C [11]: 27.2%
- viability, T/C [12]: 20.9%
- viability, T/C [13]: 45.8%
- viability, T/C [14]: 45.6%
- viability, T/C [15]: 38.3%
- viability, T/C [16]: 36.9%
- viability, T/C [17]: 32.2%
- viability, T/C [18]: 17.6%
- viability, T/C [19]: 40.7%
- viability, T/C [20]: 43.5%
- viability, T/C [21]: 39.7%
- viability, T/C [22]: 41%
- viability, T/C [23]: 31.8%
- viability, T/C [24]: 16.2%
- viability, T/C [25]: 41.3%
- viability, T/C [26]: 43.1%
- viability, T/C [27]: 32.3%
- viability, T/C [28]: 36%
- viability, T/C [29]: 33.8%
- viability, T/C [30]: 12.2%
- viability, T/C [31]: 29.4%
- viability, T/C [32]: 19.3%
- viability, T/C [33]: 28.6%
- viability, T/C [34]: 19.8%
- viability, T/C [35]: 0.34%
- viability, T/C [36]: 0.27%

SMILES: O=c1[nH]cc(F)c(=O)[nH]1 + Cc1cnc(CNC(=O)c2c(=O)c3ccc(N4CCCN(C)CC4)nc3n3c2sc2ccccc23)cn1
- IC50 (second compound 0.0316 µM): 877 nM
- IC50 (second compound 0.1 µM): > 10000 nM
- IC50 (second compound 0.316 µM): < 31.6 nM
- IC50 (second compound 1 µM): < 31.6 nM
- IC50 (second compound 3.16 µM): < 31.6 nM
- IC50 (second compound 10 µM): < 31.6 nM
- viability, T/C [1]: 78.1%
- viability, T/C [2]: 90.8%
- viability, T/C [3]: 78.9%
- viability, T/C [4]: 45.7%
- viability, T/C [5]: 53.1%
- viability, T/C [6]: 40%
- viability, T/C [7]: 55.8%
- viability, T/C [8]: 68.3%
- viability, T/C [9]: 69.5%
- viability, T/C [10]: 50.9%
- viability, T/C [11]: 70.9%
- viability, T/C [12]: 50.4%
- viability, T/C [13]: 45.7%
- viability, T/C [14]: 47.3%
- viability, T/C [15]: 51.7%
- viability, T/C [16]: 41.8%
- viability, T/C [17]: 48.2%
- viability, T/C [18]: 47%
- viability, T/C [19]: 35.9%
- viability, T/C [20]: 46.4%
- viability, T/C [21]: 41.9%
- viability, T/C [22]: 48.6%
- viability, T/C [23]: 53.9%
- viability, T/C [24]: 38.2%
- viability, T/C [25]: 33.3%
- viability, T/C [26]: 37%
- viability, T/C [27]: 37.1%
- viability, T/C [28]: 49.7%
- viability, T/C [29]: 47.1%
- viability, T/C [30]: 34%
- viability, T/C [31]: 28.3%
- viability, T/C [32]: 25.2%
- viability, T/C [33]: 30.6%
- viability, T/C [34]: 35.4%
- viability, T/C [35]: 19.8%
- viability, T/C [36]: 23.1%

Reference: PubChem BioAssay AID2060483 (Molecular Pharmacology Branch, DTP, NCI, 2025)
